This series can be described thus: Plasma pharmacokinetics of intravenous PMB in critically ill patients (UPLC-MS/MS; noncompartmental and two-compartment analysis). In kind it is in vivo, human. Conditions: for Cmax: read-out: Css,max; for AUC(0-t): read-out: AUCss,0–24h. The protocol: The patients received a 100 mg loading dose followed by a maintenance dose of 50 mg every 12 h. PMB was administered by short-term infusions (60 min). Blood samples were collected from each patient in three stages.
Phase of first dose: Blood samples were collected at defined time points to capture PK data.
Phase of steady state: Although a steady state of PMB concentration can be achieved after 48 h of treatment, considering the special condition of critically ill patients, blood samples were collected immediately before the initiation of the seventh dose (trough) and immediately at the end of the seventh dose (peak).
During the last dose phase, blood samples were collected immediately before the initiation of the last dose, immediately at the end of the last dose, and randomly (at least eight blood samples for each person) at 1.5, 2, 2.5, 3, 5, 7, 9, 12, 15, 19, 24, 48, and 72 h after completing the infusion.
Blood and BAL samples were centrifuged for 10 min (3000 rpm) and immediately stored at −80 °C until analysis.
PMB concentrations in the samples were quantified by monitoring the total concentrations of polymyxin B1 (PB1), polymyxin B2 (PB2), polymyxin B3 (PB3), and isoleucine polymyxin B1 (I-PB1) via a validated ultraperformance liquid chromatography–tandem mass spectrometry (UPLC-MS/MS) assay. The standard substances, including PB1 (CAS P037), PB2 (CAS P037), PB3 (CAS P040), and I-PB1 (CAS P038), were purchased by TOKU-E Company (>99% pure, Bellingham, WA, USA). ACQUITY UPLC system, Quattro PremierXE triple quadrupole mass spectrometer, electrospray isonizaiton source (ESI), and Masslynx 4.1 data processing software were used in this study (Waters Company, Milford, MA, USA). An Acquity UPLC BEH C18 column (50 mm × 2.1 mm internal diameter, 1.8 μm) purchased from Waters (Milford, MA, USA) was used. The mobile phase comprised a 0.2% formic acid aqueous solution and a 0.2% formic acid acetonitrile solution, and the flow rate was 0.3 mL/min. Mass spectrometric detection was performed in positive electrospray ionization (ESI+) mode with multiple reaction monitoring (MRM). The optimized transitions were set as follows: m/z 602.7→101.0 for PB1 and I-PB1, m/z 595.7→100.9 for PB2 and PB3, and […] for the internal standard norvancomycin. Plasma and BAL supernatant was aliquoted into microcentrifuge tubes and sequentially treated with 20 μL norvancomycin or 200 μL 5% trichloroacetic acid. 1 μL plasma and 2 μL BAL of supernatant were collected separately for the detection of PMB concentrations.
Analysis of independently prepared quality control samples indicated good reproducibility (coefficients of variation ≤ 8.39%) and accuracy (measured concentrations ≤ 10.0% from target concentrations). The standard curve was linear over the range of 0.5 to 10,000 ng/mL, with precision and accuracy of less than 15%. The regression coefficient was 0.9985. The relative standard deviation values for the intra- and inter-day precision at low, middle, and high levels were all less than 6%, and the recovery rate was 83.1–85.4%.
The plasma concentration–time values for PMB were analysed via Phoenix WinNonlin 8.1. The data were explored via noncompartmental and two-compartment PK models. The principles for final model selection were a low Akaike information criterion (AIC), visual evaluation of individual plasma concentration–time profiles, and precision of parameter estimations on the basis of one sample t-test or the correlation coefficient. The following PK parameters were generated via noncompartmental and two-compartment analysis: Cmax, CL, Vd, t1/2, k, and AUC was determined via the linear trapezoidal rule. The PMB Css,avg was calculated from the Cmax and Cmin that were directly obtained from the observed peak and trough concentrations in the stable state. The simulated concentrations were obtained via compartment PK models. Factors that affect PMB PK parameters were also evaluated.

The mark [1] stands for this setting: 27 critically ill patients, iv 100 mg loading, 50 mg q12h, noncompartmental analysis after last dose, mean.
Setting [2] is: Treatment Failure (n = 5), median [IQR].
Where [3] appears, read: human, plasma, iv, 50 mg, Treatment Success (n = 22), median [IQR].
Setting [4] is: human, plasma, iv, 50 mg, Table 2, 27 enrolled patients, mean.

Like-named read-outs stand apart in the source and are kept apart here. Where a SMILES comes first, the peptide text is derived from it. Bridges are numbered along the chain shown (N, C = ends). [ ]: non-standard residue; d: D form. The star is where a group is joined. X1 = CC[C@H](C)CCCCC(=O)*; Dab = NCC[C@H](N)C(=O)O

Consider `CC[C@H](C)CCCCC(=O)N[C@@H](CCN)C(=O)N[C@H](C(=O)N[C@@H](CCN)C(=O)N[C@H]1CCNC(=O)[C@H]([C@@H](C)O)NC(=O)[C@H](CCN)NC(=O)[C@H](CCN)NC(=O)[C@H](CC(C)C)NC(=O)[C@@H](Cc2ccccc2)NC(=O)[C@H](CCN)NC1=O)[C@@H](C)O` [PMB, polymyxin B] (X1-[Dab]T[Dab][Dab][Dab][dF]L[Dab][Dab]T; lactam 4-C), for which the “half-life (t1/2)” value under setting [1] came to 19.56 h. For the same compound, under setting [1], the “volume of distribution (Vd)” value amounted to 30.44 L. In addition, the “Css,avg” value was 5.1 µg/mL (Table 2, 27 enrolled patients, mean); 5.2 [3.8, 5.9] (Total (n = 27), median [IQR]); 6.6 [5.9, 7.7] under setting [2]; 5.0 [3.7, 5.5] (Treatment Success (n = 22), median [IQR]). For the same compound, the “Css,max” value is 8.7 [6.6, 10.1] (Total (n = 27), median [IQR]) and 11.1 [9.9, 11.4] under setting [2]. The Cmax by setting is: (human, plasma, iv, 50 mg, Table 2, 27 enrolled patients, iv 100 mg loading, 50 mg q12h, mean) 8300 ng/mL; under setting [3], 8700 ng/mL. The AUC(0-t) is, setting by setting: (human, plasma, iv, 50 mg, Total (n = 27), median [IQR]) 101 µg·h/mL; (human, plasma, iv, 50 mg, Treatment Failure (n = 5), median [IQR]) 64.7 µg·h/mL; under setting [3], 112 µg·h/mL; under setting [4], 110 µg·h/mL. The same compound returned a distribution volume (Vd) under setting [4] of 30.4 L. This compound also had a clearance under setting [4] of 26.7 mL/min. The half-life under setting [4] is 19.6 h.

The term Vd denotes a proportionality between amount in the body and measured concentration, not a real space. Lower therefore signals confinement near the circulation. One may read the clearance as the volume of plasma or blood freed of the substance per unit of time. Read a high clearance as a high capacity for elimination. As a reminder, the half-life is how long it takes for the measured level to halve. A high value points to slow loss.

The record behind these values is paper PMC12030314, “Biomarker-Driven Pharmacokinetics and Efficacy of Polymyxin B in Critically Ill Patients with XDR-GN Pneumonia” (Pharmaceuticals, 2025).
